# Molecular target: CYP3A4 (Homo sapiens, UniProt P08684)
# Experiment: Effect of voxelotor on PK of CYP3A4 probe substrate midazolam in healthy subjects
# Conditions: healthy subjects
# Procedure: During Period 1, subjects received a single dose of caffeine 100 mg, warfarin sodium 10 mg+vitamin K 10 mg, omeprazole 20 mg, and midazolam hydrochloride 2 mg on Day 1. During Period 2, subjects received voxelotor 900 mg QD on Days 1 and 2 followed by 600 mg QD on Day 3, a single dose of caffeine 100 mg, warfarin sodium 10 mg+vitamin K 10 mg, omeprazole 20 mg, and midazolam hydrochloride 2 mg on Day 4, and voxelotor 600 mg QD on Days 4 through 7.
# Whole blood and plasma concentrations of voxelotor and plasma concentrations of caffeine, paraxanthine, S-warfarin, omeprazole, 5-hydroxyomeprazole, midazolam, and 1-hydroxymidazolam were determined using validated assays.
# Chain of CYP3A4 (P08684 whole entry): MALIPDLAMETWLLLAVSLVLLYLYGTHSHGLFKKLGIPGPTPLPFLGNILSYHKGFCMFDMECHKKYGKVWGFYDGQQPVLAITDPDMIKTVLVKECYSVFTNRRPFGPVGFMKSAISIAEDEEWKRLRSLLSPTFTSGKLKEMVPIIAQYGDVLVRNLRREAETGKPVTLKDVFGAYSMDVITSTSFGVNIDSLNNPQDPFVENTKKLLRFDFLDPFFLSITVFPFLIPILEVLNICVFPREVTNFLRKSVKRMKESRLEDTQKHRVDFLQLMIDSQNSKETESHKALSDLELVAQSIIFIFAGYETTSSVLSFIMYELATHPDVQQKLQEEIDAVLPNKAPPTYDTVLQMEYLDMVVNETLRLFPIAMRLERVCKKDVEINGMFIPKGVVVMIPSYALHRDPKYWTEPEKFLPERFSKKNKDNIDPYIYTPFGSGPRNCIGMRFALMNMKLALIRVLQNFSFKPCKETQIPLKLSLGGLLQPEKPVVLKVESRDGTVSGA
Structure (SMILES),observed exposure increase with voxelotor (CYP3A4 substrate midazolam),"increase of overall exposure in the presence of voxelotor (midazolam hydrochloride 2 mg single dose, voxelotor 900/600 mg QD)","increase of overall exposure of metabolite in the presence of voxelotor (midazolam metabolite, voxelotor 900/600 mg QD)"
Cc1ncc2n1-c1ccc(Cl)cc1C(c1ccccc1F)=NC2 [midazolam],1.6 fold,63%,–
OCc1ncc2n1-c1ccc(Cl)cc1C(c1ccccc1F)=NC2 [1′-hydroxy-midazolam],–,–,75%

# — patent publication US20230015823A1, “METHODS OF ADMINISTERING VOXELOTOR” (Global Blood Therapeutics, Inc., priority 2019, published 2023)
